Test [1] concerns S. aureus ATCC 29213. Kind of test: MIC, broth microdilution. It is filed as cell-based, Staphylococcus aureus. How it is done: (§1) The modified broth microdilution method was used for in vitro evaluation of minimum inhibitory concentration. A small portion of bacterial colony cultivated overnight onto nutrient agar (Oxoid, Basingstoke, UK) with 5% bovine blood was suspended in sterile phosphate-buffered saline to get cell density 0.5 McFarland. This inoculum was diluted to reach the final concentration of bacterial cells 5 × 10^5 CFU/mL in the wells. […] For plates with staphylococci, cation adjusted Mueller–Hinton (CaMH) broth (Oxoid) was used; enterococci were cultivated in brain heart infusion (BHI, Oxoid). […] A drug-free control and a sterility control were included. Inoculated plates were incubated in aerobic atmosphere at 37 °C overnight. […] After evaluation of MICs, 10 µL of aliquots from the wells were put onto Mueller–Hinton agar. The agar plates were cultivated at 37 °C for 24 h. The minimum bactericidal concentration (MBC) was defined as the lowest concentration of the compound that killed 99.9% of the bacteria compared to the starting inoculum.

The test system of test [2] is methicillin-resistant S. aureus 63718. Description: MIC, broth microdilution. It is filed as cell-based, Staphylococcus aureus. The settings on record: MRSA1 = S. aureus 63718; for MIC: read-out: MICs. The protocol: as §1
The subject of test [3] is methicillin-resistant S. aureus SA 3202. Kind of test: MIC, broth microdilution. The following applies: MRSA3 = SA 3202; for MIC: read-out: MICs. It is filed as cell-based, Staphylococcus aureus. How it is done: as §1
Test [4] relates to methicillin-resistant S. aureus SA 630. Description: MIC, broth microdilution. The test is classed as cell-based, Staphylococcus aureus. The settings on record: MRSA2 = SA 630; for MIC: read-out: MICs. The protocol: as §1
Test [5] concerns E. faecalis ATCC 29212. Description: MIC, broth microdilution. The test is classed as cell-based, Enterococcus faecalis. The settings on record: EF = E. faecalis ATCC 29213. How it is done:
as §1

The subject of test [6] is vancomycin-resistant enterococci VRE 342B. Kind of test: MIC, broth microdilution. It is filed as cell-based, Enterococcus faecalis. The settings on record: VRE1 = VRE 342B; for MIC: read-out: MICs. How it is done:
as §1

Test [7] deals with vancomycin-resistant enterococci VRE 368. Description: MIC, broth microdilution. It is filed as cell-based, Enterococcus faecalis. The following applies: VRE2 = VRE 368; for MIC: read-out: MICs. The protocol:
as §1

In test [8] the test system is vancomycin-resistant enterococci VRE 725B. Kind of test: MIC, broth microdilution. It is filed as cell-based, Enterococcus faecalis. The settings on record: VRE3 = VRE 725B; for MIC: read-out: MICs. How it is done: as §1
Test [9] concerns S. aureus ATCC 29213 biofilm. Kind of test: biofilm inhibition assay (crystal violet). The test is classed as cell-based, Staphylococcus aureus. The following applies: ≥80% inhibition of biofilm formation; for MBIC80 (minimum biofilm inhibitory concentration): 48 h. The protocol: (§2) The ability of compounds 1f, 1g, and 1h to inhibit biofilm growth and destroy the matured biofilm of S. aureus ATCC 29213 was investigated. The inhibitory activity was studied by the method with crystal violet. The activity to disrupt matured biofilm was evaluated as a decrease of metabolic activity using the MTT assay.
The plates were inoculated by inoculum of S. aureus ATCC 29213 grown in TSB + 2% glucose to exponential phase. Before the inoculation of the plate, the original inoculum was diluted to 1 McFarland and then 1:100 in fresh TSB + 2% glucose, to reach the final concentrations in the wells of […]. […] The plates were incubated at 37 °C for 48 h. After incubation, the contents of the wells were removed, and the plates were washed three times by sterile PBS. After drying, 125 μL of 0.5% crystal violet was added to each well and the plates were stained at room temperature for 20 min. Then the dye was removed, and the plates were washed three times by sterile PBS. The colored biofilm was detached from the wells using 33% solution of acetic acid. The absorbance at 595 nm was measured. As a blank, a non-inoculated plate treated in the same way was used. […] The minimum biofilm inhibitory concentration was the lowest concentration of the compounds, which inhibited the growth of 80% bacteria compared to the growth control. The experiment was made in duplicate and repeated at least three times.

Test [10] deals with S. aureus ATCC 29213 biofilm. Description: biofilm susceptibility / eradication of preformed biofilm (MTT). It is filed as cell-based, Staphylococcus aureus. The following applies: for MBEC80 (minimum biofilm eradication concentration): 80% reduction of metabolic activity of preformed biofilm, 24 h. How it is done:
as §2
Biofilms were grown as described above but without the presence of the compounds. After 48 h of incubation at 37 °C, the contents of the wells were removed, and the plates were washed three times by sterile PBS. After washing, 100 µL of tested compounds in CaMH were added to the wells. […] A growth control containing 2.5% of DMSO in CaMH was included. The plates were incubated at 37 °C for 24 h, then the solutions of compounds were removed, and the plates were gently washed three times by sterile PBS. Bacterial viability was analyzed using 100 µL of 0.05 mg/mL MTT (3-(4,5-dimethylthiazol-2-yl)- 2,5-diphenyltetrazolium bromide) in PBS in each well. The plates with MTT were incubated at 37 °C for 1–2 h in darkness, until the blue formazan crystals appeared. MTT solution was removed and the plates were washed once by PBS. Crystals of formazan were dissolved using 17% sodium dodecysulphate in 40% dimethylformamid. The absorbance at 570 nm was measured and the percentage of eradication was counted according to the equation (3) % of eradication = 100 − OD570S/OD570C × 100 where OD570S is the absorbance of the sample at 570 nm and OD570C is the absorbance of the growth control at 570 nm. The minimum biofilm eradication concentration was the lowest concentration of the compound, which reduced the metabolic activity of the biofilm by 80% compared to the growth control. The experiment was made in duplicate and repeated at least three times.

The subject of test [11] is human monocytic leukemia THP-1 cells. Description: in vitro antiproliferative assay (WST-1). The following applies: THP-1 cells, WST-1, 24 h, read-out: Tox IC50. It is filed as cell-based. The protocol:
The preliminary in vitro screening of the antiproliferative effect of the investigated compounds was performed using a Water Soluble Tetrazolium salts-1 (WST-1) assay kit and a human monocytic leukemia THP-1 cell line by means of the method described recently. The principle of the WST-1 assay kit is the […] mitochondrial dehydrogenases by antiproliferative compounds. The activity of this enzyme directly correlates with the number of metabolically active cells in the culture. The antiproliferative effect was evaluated as the IC50 value (the concentration of the compound causing 50% inhibition of cell proliferation).
Human monocytic leukemia THP-1 cells were used for in vitro antiproliferative assay. Cells were obtained from the European Collection of Cell Cultures (ECACC, Salisbury, UK) and routinely cultured in RPMI (Roswell Park Memorial Institute) 1640 medium supplemented with 10% fetal bovine serum, 2% L-glutamine, 1% penicillin, and streptomycin at 37 °C with 5% CO2. Cells were passaged at approximately one-week intervals. The antiproliferative activity of the compounds was determined using a Water Soluble Tetrazolium Salts-1 (WST-1, 2-(4-iodophenyl)-3-(4-nitrophenyl)-5-(2,4-disulfophenyl)-2H-tetrazolium) assay kit (Roche Diagnostics, Mannheim, Germany) according to the manufacturer’s instructions. The tested compounds were dissolved in DMSO and added in various compound concentrations to the cell suspension in the culture RPMI 1640 medium. The maximum concentration of DMSO in the assays never exceeded 0.1%. Subsequently, the cells were incubated at 37 °C with 5% CO2 for 24 h. For WST-1 assays, cells were seeded into 96-well plates (5 × 10^4 cells/well in 100 μL culture medium) in triplicate in serum-free RPMI 1640 medium, and measurements were taken 24 h after the treatment with the compounds. The median inhibition concentration values, IC50, were deduced through the production of a dose-response curve. All data were evaluated using GraphPad Prism 5.00 software (GraphPad Software, San Diego, CA, USA).

The mark [12] stands for this setting: SA = S. aureus ATCC 29213, read-out: MICs.
Setting [13] is: Table 7, planktonic cells of S. aureus ATCC 29213.
Setting [14] is: Staphylococcus aureus, ATCC29213, SA = S. aureus ATCC 29213, read-out: MICs.
Where [15] appears, read: Staphylococcus aureus, ATCC29213, Table 7, planktonic cells of S. aureus ATCC 29213, read-out: MIC.
Where [16] appears, read: Enterococcus faecalis, ATCC 29212 / ATCC 29213.

Where “and” joins values, the source holds several entries; their conditions need not be identical. Equal entries are not always repeated. Where two headings read alike, the source gives them in different places. Bounds are passed on as bounds.

Consider `CCCCCCCCCCCCOS(=O)(=O)[O-].[Na+]` [SDS, sodium dodecyl sulfate, reference compound], for which the MICs in test [1] (SA = S. aureus ATCC 29213) is recorded as 128 µg/mL; in test [2] it was 128 µg/mL; in [3], 64 µg/mL; in test [4], 64 µg/mL; in test [5], 128 µg/mL; in test [6], 256 µg/mL. In addition, the MICs in test [7] and in test [8] was 128 µg/mL each time. Moreover, the MIC is given as 443 µM in [1] (setting [12]); 128 µg/mL in test [1] (setting [13]); 443 µM in [2]; 222 µM in test [3]; 222 µM in test [4]; 443 µM in test [5]. For the same molecule, the MIC in test [6] stood at 887 µM; in test [7] it was 443 µM; in test [8] it was 443 µM. Also, in [9], the “MBIC80 (minimum biofilm inhibitory concentration)” value came to 32 µg/mL. For the same molecule, the “MBEC80 (minimum biofilm eradication concentration)” value (“MBEC80” for short) in test [10] was determined as 128 µg/mL.
As for `CCCCCCCCCCCCCCCC[N+](C)(C)Cc1ccccc1` [CTC, cetalkonium chloride, reference compound], the MIC in [1] (setting [14]) was 0.25 µg/mL and 0.63 µM; in test [1] (setting [15]), 0.25 µg/mL; in test [2] (Staphylococcus aureus), 0.25 µg/mL and 0.63 µM; in [3] (Staphylococcus aureus) it was 1 µg/mL and 2.53 µM; in test [4] (Staphylococcus aureus), 0.5 µg/mL and 1.26 µM; in test [5] (setting [16]), 1 µg/mL and 2.53 µM. Moreover, the MIC in test [6] (Enterococcus) was 0.5 µg/mL and 1.26 µM; in test [7] (Enterococcus) it was 0.5 µg/mL and 1.26 µM; in test [8] (Enterococcus), 0.5 µg/mL and 1.26 µM. Also, in test [11] (Homo sapiens, THP-1, 24 h), the IC50 turned out to be 1290 ± 70 nM. Also, the “MBIC80 (minimum biofilm inhibitory concentration)” value in test [9] amounted to 0.25 µg/mL. Further, the “activity on preformed biofilm” value in [10] is reported as “did not show any activity on preformed biofilm”. In addition, the “MBEC80” value in [10] is on record as over 256 µg/mL.
With `CCCCNc1ccc(C(=O)OCCN(C)C)cc1` [TEC, tetracaine, reference compound], the MIC in [1] (setting [14]) was > 256 µg/mL and > 968 µM; in test [1] (setting [15]), over 256 µg/mL; in [2] (Staphylococcus aureus), > 256 µg/mL and > 968 µM; in test [3] (Staphylococcus aureus) it was > 256 µg/mL and > 968 µM; in test [4] (Staphylococcus aureus) it was > 256 µg/mL and > 968 µM; in [5] (setting [16]), > 256 µg/mL and > 968 µM. The MIC in test [6] (Enterococcus) was > 256 µg/mL and > 968 µM; in test [7] (Enterococcus) it was > 256 µg/mL and > 968 µM; in [8] (Enterococcus), > 256 µg/mL and > 968 µM. Besides, the IC50 in [11] (Homo sapiens, THP-1, 24 h) was 224000 ± 6520 nM. Moreover, the “MBIC80 (minimum biofilm inhibitory concentration)” value in [9] is on record as over 256 µg/mL. Besides, in [10], the “MBEC80” value was over 256 µg/mL.
Regarding “carbethopendecinium bromide [CRB, reference compound]”, the MICs was determined as 0.25 µg/mL in [1] (SA = S. aureus ATCC 29213); 0.25 µg/mL in [2]; 2 µg/mL in test [3]; 0.5 µg/mL in test [4]; 0.5 µg/mL in [5]; 0.5 µg/mL in test [6]. Further, the MICs is on record as 0.25 µg/mL in test [7] and 0.5 µg/mL in [8]. The MIC is recorded as 0.59 µM in test [1] (setting [12]); 0.25 µg/mL in [1] (setting [13]); 0.59 µM in test [2]; 4.73 µM in [3]; 1.18 µM in [4]; 1.18 µM in [5]. The MIC was determined as 1.18 µM in test [6], 0.59 µM in [7] and 1.18 µM in [8]. In addition, the IC50 in test [11] amounted to 1730 ± 80 nM. Further, the “minimum biofilm inhibitory concentration relative to MIC against planktonic cells” value in test [9] is on record as “comparable to its MIC”. The “MBIC80 (minimum biofilm inhibitory concentration)” value in test [9] is 0.25 µg/mL. Further, the “MBEC80” value in test [10] is given as 64 µg/mL.
Consider `CCN(CC)CCOC(=O)c1ccc(N)cc1` [PRC, procaine, reference compound], for which the MIC in test [1] (setting [14]) is > 256 µg/mL and > 1080 µM; in test [1] (setting [15]) it was over 256 µg/mL; in [2] (Staphylococcus aureus) it was > 256 µg/mL and > 1080 µM; in test [3] (Staphylococcus aureus) it was > 256 µg/mL and > 1080 µM; in [4] (Staphylococcus aureus), > 256 µg/mL and > 1080 µM; in test [5] (setting [16]), > 256 µg/mL and > 1080 µM. Further, the MIC in test [6] (Enterococcus) is > 256 µg/mL and > 1080 µM; in test [7] (Enterococcus), > 256 µg/mL and > 1080 µM; in test [8] (Enterococcus) it was > 256 µg/mL and > 1080 µM. For the same molecule, in [11] (Homo sapiens, THP-1, 24 h), the IC50 was over 300000 nM. Moreover, the “MBIC80 (minimum biofilm inhibitory concentration)” value in test [9] is given as over 256 µg/mL. Moreover, in [10], the “MBEC80” value was over 256 µg/mL.
